From PubChem BioAssay AID330 (DTP/NCI, 2004)
Where “and” joins values, the source holds several entries; their conditions need not be identical. Identical values can stand only once. Toxic doses and inconclusive results are not listed. Rule for the calls: active = survival T/C of 150% or more; inactive = T/C below 125% in these data.

Tested on: P388 leukemia ip, CD2F1 mice, survival T/C
Experiment: NCI In Vivo Anticancer Drug Screen. Data for tumor model P388 Leukemia (intraperitoneal) in CD2F1 (CDF1) mice
Conditions: endpoint: median survival time, higher = longer survival
Method in brief: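 Mice carrying the transplanted tumor received test compound or vehicle. Survival was recorded in each group, and the value is the treated-group measurement divided by that of the vehicle-treated control group.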

[1] = dose: 60.0 mg/kg/injection, schedule: Q01DX005 (ip), vehicle: saline with Tween-80
[2] = dose: 50.0 mg/kg/injection, schedule: Q01DX005 (ip), vehicle: saline with Tween-80
[3] = dose: 100.0 mg/kg/injection, schedule: Q01DX005 (ip), vehicle: saline with Tween-80
[4] = dose: 200.0 mg/kg/injection, schedule: Q01DX005 (ip), vehicle: saline with Tween-80
[5] = dose: 30.0 mg/kg/injection, schedule: Q01DX005 (ip), vehicle: saline with Tween-80
[6] = dose: 25.0 mg/kg/injection, schedule: Q01DX009 (ip), vehicle: saline with Tween-80
[7] = dose: 50.0 mg/kg/injection, schedule: Q01DX009 (ip), vehicle: saline with Tween-80
[8] = dose: 100.0 mg/kg/injection, schedule: Q01DX009 (ip), vehicle: saline with Tween-80
[9] = dose: 50.0 mg/kg/injection, schedule: Q01DX009 (ip), vehicle: Klucel (hydroxypropylcellulose) (HPC)
[10] = dose: 100.0 mg/kg/injection, schedule: Q01DX009 (ip), vehicle: Klucel (hydroxypropylcellulose) (HPC)
[11] = dose: 200.0 mg/kg/injection, schedule: Q01DX009 (ip), vehicle: Klucel (hydroxypropylcellulose) (HPC)
[12] = dose: 60.0 mg/kg/injection, schedule: Q01DX005 (ip), vehicle: Klucel (hydroxypropylcellulose) (HPC)
[13] = dose: 120.0 mg/kg/injection, schedule: Q01DX005 (ip), vehicle: Klucel (hydroxypropylcellulose) (HPC)

Measured: T/C

CCOC(=O)c1[nH]c(=S)sc1N
inactive: [1] 99 % of control | dose: 120.0 mg/kg/injection, schedule: Q01DX005 (ip), vehicle: saline with Tween-80 92 % of control | dose: 240.0 mg/kg/injection, schedule: Q01DX005 (ip), vehicle: saline with Tween-80 90 % of control

CC(=O)c1c(O)c2ccc(Cl)cc2[nH]c1=O
inactive: [2] 99 % of control | [3] 96 % of control | [4] 99 % of control

CC1=NNC(=S)NCCCN2CCN(CCCNC(=S)NN=C(C)C=NNC(=S)NCCCN3CCN(CCCNC(=S)NN=C1)CC3)CC2
inactive: dose: 50.0 mg/kg/injection, schedule: Q01DX005 (ip), vehicle: suspension in saline 106 % of control | dose: 100.0 mg/kg/injection, schedule: Q01DX005 (ip), vehicle: suspension in saline 113 % of control | dose: 200.0 mg/kg/injection, schedule: Q01DX005 (ip), vehicle: suspension in saline 106 % of control

N#CCc1c(F)c(F)c(F)c(F)c1F
inactive: [5] 100 % of control | [1] 99 % of control and 108 % of control

C[C@]12CC(=O)[C@@H](C[C@H]1OC(=O)c1ccccc1)[C@@]21CO1
inactive: dose: 2.0 mg/kg/injection, schedule: Q04DX002 (ip), vehicle: distilled water + Tween-80 102 % of control | dose: 4.0 mg/kg/injection, schedule: Q04DX002 (ip), vehicle: distilled water + Tween-80 97 % of control | dose: 8.0 mg/kg/injection, schedule: Q04DX002 (ip), vehicle: distilled water + Tween-80 100 % of control | dose: 16.0 mg/kg/injection, schedule: Q04DX002 (ip), vehicle: distilled water + Tween-80 106 % of control | dose: 32.0 mg/kg/injection, schedule: Q04DX002 (ip), vehicle: distilled water + Tween-80 99 % of control

C[N+]1(C)CCC(=O)CC1
inactive: [6] 109 % of control | [7] 100 % of control | [8] 104 % of control

CC1(C)CC2(C)OCCN2C(=S)N1 (stereo not drawn)
inactive: [9] 100 % of control | [10] 90 % of control | [11] 89 % of control

CC1=CC(=C2C(=O)c3ccccc3C2=O)C=C(C)N1CCN1CCCCC1
inactive: dose: 50.0 mg/kg/injection, schedule: Q01DX005 (ip), vehicle: saline 98 % of control | [12] 90 % of control | dose: 100.0 mg/kg/injection, schedule: Q01DX005 (ip), vehicle: saline 99 % of control | [13] 95 % of control

SCc1ccccc1CS
inactive: [7] 110 % of control and 112 % of control and 114 % of control | [8] 110 % of control and 114 % of control and 121 % of control | dose: 200.0 mg/kg/injection, schedule: Q01DX009 (ip), vehicle: saline with Tween-80 107 % of control

Nc1nnc2nc(C(C(=O)/C=C\c3cccc(O)c3)c3nc4nnc(N)n4[nH]c3=O)c(=O)[nH]n12
inactive: [2] 95 % of control | [3] 94 % of control | [4] 100 % of control

CCCCCCCC(=O)NN(Cn1c(=S)sc2ccccc21)Cn1c(=S)sc2ccccc21
inactive: dose: 50.0 mg/kg/injection, schedule: Q01DX005 (ip), vehicle: Klucel (hydroxypropylcellulose) (HPC) 96 % of control | dose: 100.0 mg/kg/injection, schedule: Q01DX005 (ip), vehicle: Klucel (hydroxypropylcellulose) (HPC) 88 % of control | dose: 200.0 mg/kg/injection, schedule: Q01DX005 (ip), vehicle: Klucel (hydroxypropylcellulose) (HPC) 88 % of control

COc1ccc(-c2cn3c([nH]c(=O)c4ccccc43)c2C#N)cc1
inactive: dose: 15.0 mg/kg/injection, schedule: Q01DX005 (ip), vehicle: saline with Tween-80 86 % of control | [5] 88 % of control | [1] 86 % of control

CCC[CH2][Sn]([CH2]CCC)([S]CC(=O)OC)[S]CC(=O)OC
inactive: dose: 1.56 mg/kg/injection, schedule: Q01DX001 (ip), vehicle: Klucel (hydroxypropylcellulose) (HPC) 110 % of control | dose: 3.12 mg/kg/injection, schedule: Q01DX001 (ip), vehicle: Klucel (hydroxypropylcellulose) (HPC) 111 % of control | dose: 6.25 mg/kg/injection, schedule: Q01DX001 (ip), vehicle: Klucel (hydroxypropylcellulose) (HPC) 96 % of control | dose: 12.5 mg/kg/injection, schedule: Q01DX001 (ip), vehicle: Klucel (hydroxypropylcellulose) (HPC) 106 % of control | dose: 25.0 mg/kg/injection, schedule: Q01DX001 (ip), vehicle: Klucel (hydroxypropylcellulose) (HPC) 115 % of control

O=NNc1ccc(S(=O)(=O)c2ccc(NN=O)cc2)cc1
inactive: dose: 3.12 mg/kg/injection, schedule: Q01DX009 (ip), vehicle: water 91 % of control | dose: 6.25 mg/kg/injection, schedule: Q01DX009 (ip), vehicle: water 110 % of control | dose: 12.5 mg/kg/injection, schedule: Q01DX009 (ip), vehicle: water 119 % of control | dose: 25.0 mg/kg/injection, schedule: Q01DX009 (ip), vehicle: water 116 % of control | dose: 37.5 mg/kg/injection, schedule: Q01DX009 (ip), vehicle: water 122 % of control | dose: 50.0 mg/kg/injection, schedule: Q01DX009 (ip), vehicle: water 119 % of control | dose: 75.0 mg/kg/injection, schedule: Q01DX009 (ip), vehicle: water 113 % of control

CNCCCN1c2ccccc2CCc2ccccc21
inactive: [2] 103 % of control

O=C(NCO)NS(=O)(=O)c1ccc(N2C(=O)c3ccccc3C2=O)cc1
inactive: [9] 103 % of control | [10] 107 % of control | [11] 112 % of control

CCOC(=O)c1ccc2c(c1)C(C)(SC)C(=O)N2 (stereo not drawn)
inactive: [6] 96 % of control | [7] 100 % of control | [8] 93 % of control

Cc1cccc(NC(=O)Nc2ccc(F)cc2)n1
inactive: [12] 101 % of control | [13] 96 % of control | dose: 240.0 mg/kg/injection, schedule: Q01DX005 (ip), vehicle: Klucel (hydroxypropylcellulose) (HPC) 100 % of control

Nc1nc2n(O)cc(-c3ccccc3)nc-2c(=O)n1
inactive: dose: 10.0 mg/kg/injection, schedule: Q01DX009 (ip), vehicle: saline with Tween-80 89 % of control | dose: 20.0 mg/kg/injection, schedule: Q01DX009 (ip), vehicle: saline with Tween-80 101 % of control | dose: 40.0 mg/kg/injection, schedule: Q01DX009 (ip), vehicle: saline with Tween-80 92 % of control
